The test deals with Histone deacetylase 1 (Homo sapiens, UniProt Q13547). As to the kind of experiment: BIOMOL Fluorescent-Based Assay: The assay has been carried out in 96 well format and the BIOMOL fluorescent-based HDAC activity assay has been applied. The reaction composed of assay buffer, containing 25 mM Tris pH 7.5, 137 mM NaCl, 2.7 mM KCl, 1 mM MgCl2, 1 mg/ml BSA, tested compounds, an appropriate concentration of HDAC1 enzyme, 500 uM Flur de lys generic substrate for HDAC1 enzyme and subsequently was incubated at room temperature for 2 h. Flur de lys Developer was added and the reaction was incubated for 10 min. Briefly, deacetylation of the substrate sensitizes it to the developer, which then generates a fluorophore. The fluorophore is excited with 360 nm light and the emitted light (460 nm) is detected on a fluorometric plate reader (Tecan Ultra Microplate detection system, Tecan Group Ltd.).

Bounds are passed on as bounds.

Chain of Histone deacetylase 1 (Q13547 whole entry): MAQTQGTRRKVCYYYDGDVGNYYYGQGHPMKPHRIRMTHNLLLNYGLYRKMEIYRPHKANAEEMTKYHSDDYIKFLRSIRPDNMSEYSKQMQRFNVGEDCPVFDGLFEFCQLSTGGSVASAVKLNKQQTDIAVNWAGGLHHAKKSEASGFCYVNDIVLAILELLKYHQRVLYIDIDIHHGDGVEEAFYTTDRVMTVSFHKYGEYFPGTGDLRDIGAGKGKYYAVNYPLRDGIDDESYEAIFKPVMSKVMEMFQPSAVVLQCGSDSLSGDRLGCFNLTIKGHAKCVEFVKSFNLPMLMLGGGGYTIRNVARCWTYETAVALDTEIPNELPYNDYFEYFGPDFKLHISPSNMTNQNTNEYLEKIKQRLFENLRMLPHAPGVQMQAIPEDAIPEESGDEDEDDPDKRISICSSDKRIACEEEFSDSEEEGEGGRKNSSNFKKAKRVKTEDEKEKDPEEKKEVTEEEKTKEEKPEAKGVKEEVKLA

By IC50 is commonly meant the concentration that gives 50% inhibition. `CCCCCCc1nc2cc(/C=C/C(=O)NO)ccn2c1NCCC(=O)N(C)CC#N`: the concentration for half-maximal inhibition (IC50) was greater than 10000 nM.

With `COCCNc1c(CCC(=O)O)nc2ccc(/C=C/C(=O)NO)cn12`, the IC50 amounted to 320 nM.

For the compound `CCCCc1nc2cc(/C=C/C(=O)NO)ccn2c1CN(CC)CC(C)CCC` (centres undefined), the IC50 was found to be 60 nM.

As for `CC(C)(C)Nc1c(C(=O)O)nc2ccc(/C=C/C(=O)NO)cn12`, the IC50 is greater than 10000 nM.

The values are drawn from ChEMBL document CHEMBL3638542, “Imidazo[1,2-a]pyridine derivatives: preparation and pharmaceutical applications” (2014).
